Reference: patent publication US7915235B2, “High affinity ligands bind to clostridium difficile toxin A” (priority 2006, dated 2011)
Several values for one entry are separate records, joined by “and”; a condition that tells them apart may be missing. Equal values may be shown once.

How the values were obtained:
[1] = molecular target: Clostridium difficile toxin A (Clostridioides difficile, UniProt P16154); details: toxin A applied at 200 micrograms/ml; detected with PCG4 antibody and goat anti-mouse Alexa488
[2] = tested on: C. difficile-associated diarrhea (CDAD); details: oral metronidazole 500 mg TID; oral vancomycin 125 mg every 6 h; cited from earlier work
[3] = tested on: C. difficile associated diarrhea; details: cited from earlier work

In the case of `CC(=O)N[C@@H]1[C@@H](O)[C@H](O[C@@H]2O[C@H](CO)[C@H](O)[C@H](O[C@@H]3O[C@H](CO)[C@H](O)[C@H](O)[C@H]3O)[C@H]2O)[C@@H](CO)O[C@H]1O` [Galb1-3Galb1-4GlcNAcb], the “fluorescence (FL) signal” value [1] was 172.

With `CC(=O)N[C@@H]1[C@@H](O[C@@H]2O[C@@H](C)[C@@H](O)[C@@H](O)[C@@H]2O)[C@H](O[C@@H]2O[C@H](CO)[C@H](O)[C@H](O)[C@H]2O)[C@@H](CO)O[C@H]1O` [Lewis×, Galb1-4[Fuca1-3]GlcNAcb] the “fluorescence (FL) signal” value [1] was 122 and 218.

In the case of `Cc1ncc([N+](=O)[O-])n1CCO` [metronidazole], the response rates [2] is given as ~90%.

For `CN[C@H](CC(C)C)C(=O)N[C@H]1C(=O)N[C@@H](CC(N)=O)C(=O)N[C@H]2C(=O)N[C@H]3C(=O)N[C@H](C(=O)N[C@H](C(=O)O)c4cc(O)cc(O)c4-c4cc3ccc4O)[C@H](O)c3ccc(c(Cl)c3)Oc3cc2cc(c3O[C@@H]2O[C@H](CO)[C@@H](O)[C@H](O)[C@H]2O[C@H]2C[C@](C)(N)[C@H](O)[C@H](C)O2)Oc2ccc(cc2Cl)[C@H]1O` [vancomycin], the definitive recurrence rate ([3]; per protocol population with recurrent CDAD at enrollment, vancomycin or 6 g tolevamer) is given as 27%, the “definitive recurrence rate confirmed by a positive toxin assay” value ([3]; per protocol population, 125 mg vancomycin QID or 6 g tolevamer) is given as 19% and the response rates [2] is given as ~90%.

In the case of “GalNAca1-3(Fuca1-2)Galb1-4(Fuca1-3)GlcNAcb-”, the “fluorescence (FL) signal” value [1] was 327.

For GalNAca1-3(Fuca1-2)Galb1-4GlcNAcb-, the “fluorescence (FL) signal” value [1] was 188.

For “Gala1-3(Fuca1-2)Galb1-4(Fuca1-3)GlcNAcb-”, the “fluorescence (FL) signal” value [1] was 789.

In the case of Gala1-3Galb1-4(Fuca1-3)GlcNAcb-, the “fluorescence (FL) signal” value [1] was 1814.

For “Galb1-3(Fuca1-4)GlcNAcb1-3Galb1-4GlcNAcb-”, the “fluorescence (FL) signal” value [1] was 29098.

With “NeuAca2-3Galb1-3(Fuca1-4)GlcNAcb1-3Galb1-4(Fuca1-3)GlcNAcb-” the “fluorescence (FL) signal” value [1] was 14911.

For “NeuAca2-3Galb1-3GlcNAcb1-3Galb1-4GlcNAcb-”, the “fluorescence (FL) signal” value [1] was 4435.
